“Also recorded” adds a separate entry of the source.
Assays:
Type in all cases: in vivo, mouse
Conditions in all cases: BTBR offspring; 10 mM in drinking water before mating and throughout lifetime (prenatal administration); vs untreated vehicle controls
[1] = tested on: BTBR mice; experiment: Open field testing (OFT), BTBR mice given metabolites
Experimental: FIGS. 5A-D are a series of drawings illustrating that differential metabolites impact ASD-relevant behaviors in SPF mice in accordance with some embodiments herein. FIG. 5A: The abundance of select metabolites in the offspring microbiome is correlated with behavior of male offspring. Spearman correlation between the microbiome and mouse behavior, by donor (See FIGS. 1A-0). […] Color scale denotes Spearman ρ. […] Groups of mice were orally administered 10 mM Taurine or 5AV in drinking water before mating, and throughout their lifetime. Offspring were tested by marble burying, direct social interaction, and open field tests, and compared to untreated vehicle controls. Results are aggregated from 2 independent experiments. NControl=42, […]=52, NTaurine=36. […] Open field testing (OFT)-OFT, as a measure for locomotion and anxiety, was performed in 50×50 cm^2 white plexiglas arenas, recorded using an overhead camera, and tracked and analyzed using the EthoVision XT 10 software package (Noldus Information Technology). […] The distance traveled, as well as the number of entries and time spend in a 30×30 cm^2 center square, were analyzed by the EthoVision software. […] As such, it will be appreciated that at a given stage of development, some molecules may readily pass through the blood brain barrier, while others may not.

[2] = tested on: BTBR mice; experiment: Marble burying (MB), BTBR mice given metabolites
Experimental: FIGS. 5A-D are a series of drawings illustrating that differential metabolites impact ASD-relevant behaviors in SPF mice in accordance with some embodiments herein. FIG. 5A: The abundance of select metabolites in the offspring microbiome is correlated with behavior of male offspring. Spearman correlation between the microbiome and mouse behavior, by donor (See FIGS. 1A-0). […] Color scale denotes Spearman ρ. […] Groups of mice were orally administered 10 mM Taurine or 5AV in drinking water before mating, and throughout their lifetime. Offspring were tested by marble burying, direct social interaction, and open field tests, and compared to untreated vehicle controls. Results are aggregated from 2 independent experiments. NControl=42, […]=52, NTaurine=36. Bar plots denote mean and S.E.M. Hypothesis on differences in means were tested by ANOVA on trimmed means (10%) and subsequent posthoc tests. FIGS. 5E-L: qPCR of BTBR brains after 5AV and taurine administration. Results are aggregated from 2 independent experiments. Hypothesis on differences in means were tested by ANOVA on trimmed means (10%) and subsequent posthoc tests. […] The number of buried marbles (50% or more covered) was then recorded and photographed for reference. […] As such, it will be appreciated that at a given stage of development, some molecules may readily pass through the blood brain barrier, while others may not.

[3] = tested on: BTBR mice; experiment: Direct social interaction (DSI) test, BTBR mice given metabolites
Experimental: FIGS. 5A-D are a series of drawings illustrating that differential metabolites impact ASD-relevant behaviors in SPF mice in accordance with some embodiments herein. FIG. 5A: The abundance of select metabolites in the offspring microbiome is correlated with behavior of male offspring. Spearman correlation between the microbiome and mouse behavior, by donor (See FIGS. 1A-0). […] Color scale denotes Spearman ρ. […] Groups of mice were orally administered 10 mM Taurine or 5AV in drinking water before mating, and throughout their lifetime. Offspring were tested by marble burying, direct social interaction, and open field tests, and compared to untreated vehicle controls. […] Social Behavior (SI)-direct social interaction (DSI) test-As a more sensitive measure for sociability, the direct social interaction test was also used, where a mouse is allowed to interact with a stimulus mouse while the interaction is being recorded. Each mouse was introduced to a fresh empty cage and allowed to habituate for 10 minutes; grooming behavior was scored for the last five minutes of this period. […] A blinded observer scored videos for any social approach, aggression, or grooming behavior […] using the ETHOM software (Shih and Mok, 2000). […] As such, it will be appreciated that at a given stage of development, some molecules may readily pass through the blood brain barrier, while others may not.

| SMILES | anxiety, as measured by center duration in the OFT [1] | repetitive behavior, as measured by marble burying [2] | sociability / social duration (direct social interaction) [3] |
| --- | --- | --- | --- |
| NCCS(=O)(=O)O [taurine] | reduces anxiety | significantly reduces repetitive behavior in male mice | trend toward increasing social duration in all mice; also recorded: increases sociability |
| NCCCCC(=O)O [5AV, 5-Aminovaleric acid] |  | reduced repetitive behavior | increases sociability |

Reference: patent US20230158084A1, “PROBIOTICS, METABOLITES, AND USES THEREOF” (California Institute of Technology, priority 2018, published 2023)
